ChEMBL document CHEMBL4138123, “Design, synthesis and biological evaluation of novel pyrazolochalcones as potential modulators of PI3K/Akt/mTOR pathway and inducers of apoptosis in breast cancer cells” (Eur J Med Chem, 2017)

Legend:
Type in all cases: functional
[1] = system: MDA-MB-468; experiment: Cytotoxicity against human MDA-MB-468 cells assessed as cell growth at 1 uM after 48 hrs by sulforhodamine B assay relative to control; conditions: MDA-MB-468, 48 h, read-out: Activity
[2] = system: Malme-3M; experiment: Cytotoxicity against human MALME-3M cells assessed as cell growth at 0.1 uM after 48 hrs by sulforhodamine B assay relative to control; conditions: read-out: Activity
[3] = system: BT-549; experiment: Cytotoxicity against human BT549 cells assessed as cell growth at 10 uM after 48 hrs by sulforhodamine B assay relative to control; conditions: BT-549, 48 h, read-out: Activity
[4] = system: HCT-15; experiment: Cytotoxicity against human HCT15 cells assessed as cell growth at 0.01 uM after 48 hrs by sulforhodamine B assay relative to control; conditions: HCT-15, 48 h, read-out: Activity
[5] = system: A498; experiment: Cytotoxicity against human A498 cells assessed as cell growth at 10 uM after 48 hrs by sulforhodamine B assay relative to control; conditions: A498, 48 h, read-out: Activity
[6] = system: SK-MEL-5; experiment: Cytotoxicity against human SK-MEL-5 cells assessed as cell growth at 100 uM after 48 hrs by sulforhodamine B assay relative to control; conditions: SK-MEL-5, 48 h, read-out: Activity
[7] = system: RXF 393; experiment: Cytotoxicity against human RXF393 cells assessed as growth inhibition after 48 hrs by sulforhodamine B assay; conditions: RXF 393, 48 h
[8] = system: HCT-15; experiment: Cytotoxicity against human HCT15 cells assessed as growth inhibition after 48 hrs by sulforhodamine B assay; conditions: HCT-15, 48 h
[9] = system: A549; experiment: Cytotoxicity against human A549/ATCC cells assessed as cell growth at 100 uM after 48 hrs by sulforhodamine B assay relative to control; conditions: A549, 48 h, read-out: Activity
[10] = system: MOLT-4; experiment: Cytotoxicity against human MOLT4 cells assessed as growth inhibition after 48 hrs by sulforhodamine B assay; conditions: MOLT-4, 48 h
[11] = system: SR; experiment: Cytotoxicity against human SR cells assessed as growth inhibition after 48 hrs by sulforhodamine B assay
[12] = system: SF-539; experiment: Cytotoxicity against human SF539 cells assessed as cell growth at 0.1 uM after 48 hrs by sulforhodamine B assay relative to control; conditions: SF-539, 48 h, read-out: Activity
[13] = system: SR; experiment: Cytotoxicity against human SR cells assessed as cell growth at 0.1 uM after 48 hrs by sulforhodamine B assay relative to control; conditions: read-out: Activity
[14] = system: UACC-257; experiment: Cytotoxicity against human UACC257 cells assessed as cell growth at 10 uM after 48 hrs by sulforhodamine B assay relative to control; conditions: UACC-257, 48 h, read-out: Activity
[15] = system: RPMI-8226; experiment: Cytotoxicity against human RPMI8226 cells assessed as growth inhibition after 48 hrs by sulforhodamine B assay; conditions: RPMI-8226, 48 h
[16] = system: HL-60(TB); experiment: Cytotoxicity against human HL-60(TB) cells assessed as cell growth at 0.01 uM after 48 hrs by sulforhodamine B assay relative to control; conditions: HL-60, 48 h, read-out: Activity
[17] = system: NCI-H322M; experiment: Cytotoxicity against human NCI-H322M cells assessed as cell growth at 1 uM after 48 hrs by sulforhodamine B assay relative to control; conditions: read-out: Activity
[18] = system: Malme-3M; experiment: Cytotoxicity against human MALME-3M cells assessed as growth inhibition after 48 hrs by sulforhodamine B assay
[19] = system: HT-29; experiment: Cytotoxicity against human HT-29 cells assessed as cell growth at 1 uM after 48 hrs by sulforhodamine B assay relative to control; conditions: HT-29, 48 h, read-out: Activity
[20] = system: HCT-116; experiment: Cytotoxicity against human HCT116 cells assessed as cell growth at 100 uM after 48 hrs by sulforhodamine B assay relative to control; conditions: HCT-116, 48 h, read-out: Activity
[21] = system: NCI-H460; experiment: Cytotoxicity against human NCI-H460 cells assessed as growth inhibition after 48 hrs by sulforhodamine B assay; conditions: NCI-H460, 48 h
[22] = system: SK-OV-3; experiment: Cytotoxicity against human SKOV3 cells assessed as cell growth at 100 uM after 48 hrs by sulforhodamine B assay relative to control; conditions: SK-OV-3, 48 h, read-out: Activity
[23] = system: HL-60(TB); experiment: Cytotoxicity against human HL-60(TB) cells assessed as cell growth at 0.1 uM after 48 hrs by sulforhodamine B assay relative to control; conditions: HL-60, 48 h, read-out: Activity
[24] = system: MDA-MB-435; experiment: Cytotoxicity against human MDA-MB-435 cells assessed as cell growth at 0.1 uM after 48 hrs by sulforhodamine B assay relative to control; conditions: MDA-MB-435, 48 h, read-out: Activity
[25] = system: OVCAR-8; experiment: Cytotoxicity against human OVCAR8 cells assessed as growth inhibition after 48 hrs by sulforhodamine B assay; conditions: OVCAR-8, 48 h
[26] = system: U-251; experiment: Cytotoxicity against human U251 cells assessed as cell growth at 10 uM after 48 hrs by sulforhodamine B assay relative to control; conditions: U-251, 48 h, read-out: Activity
[27] = system: NCI-H226; experiment: Cytotoxicity against human NCI-H226 cells assessed as cell growth at 0.01 uM after 48 hrs by sulforhodamine B assay relative to control; conditions: NCI-H226, 48 h, read-out: Activity
[28] = system: UACC-257; experiment: Cytotoxicity against human UACC257 cells assessed as cell growth at 0.01 uM after 48 hrs by sulforhodamine B assay relative to control; conditions: UACC-257, 48 h, read-out: Activity
[29] = system: MOLT-4; experiment: Cytotoxicity against human MOLT4 cells assessed as cell growth at 100 uM after 48 hrs by sulforhodamine B assay relative to control; conditions: MOLT-4, 48 h, read-out: Activity
[30] = system: SK-OV-3; experiment: Cytotoxicity against human SKOV3 cells assessed as cell growth at 0.1 uM after 48 hrs by sulforhodamine B assay relative to control; conditions: SK-OV-3, 48 h, read-out: Activity
[31] = system: ACHN; experiment: Cytotoxicity against human ACHN cells assessed as cell growth at 10 uM after 48 hrs by sulforhodamine B assay relative to control; conditions: read-out: Activity
[32] = system: BT-549; experiment: Cytotoxicity against human BT549 cells assessed as cell growth at 0.1 uM after 48 hrs by sulforhodamine B assay relative to control; conditions: BT-549, 48 h, read-out: Activity
[33] = system: BT-549; experiment: Cytotoxicity against human BT549 cells assessed as cell growth at 100 uM after 48 hrs by sulforhodamine B assay relative to control; conditions: BT-549, 48 h, read-out: Activity
[34] = system: U-251; experiment: Cytotoxicity against human U251 cells assessed as cell growth at 1 uM after 48 hrs by sulforhodamine B assay relative to control; conditions: U-251, 48 h, read-out: Activity
[35] = system: CCRF-CEM; experiment: Cytotoxicity against human CCRF-CEM cells assessed as cell growth at 1 uM after 48 hrs by sulforhodamine B assay relative to control; conditions: read-out: Activity
[36] = system: UO-31; experiment: Cytotoxicity against human UO31 cells assessed as cell growth at 0.01 uM after 48 hrs by sulforhodamine B assay relative to control; conditions: UO-31, 48 h, read-out: Activity
[37] = read-out: LC50 (the source's name)

In the case of `COc1ccc(C(=O)/C=C/c2cc(-c3cc(OC)c(OC)c(OC)c3)n[nH]2)cc1OC`, the growth at 1 µM [1] is reported as 45%, the growth at 0.1 µM [2] is reported as 92% and the growth at 10 µM [3] is reported as -88%. For the same molecule, the growth at 0.01 µM [4] was 97%, the growth at 10 µM [5] was -87% and the growth at 100 µM [6] was -92%. For the same molecule, the LC50 (concentration killing 50% of cells) [7] was 5.23 µM, the TGI [7] was 2.66 µM and the LC50 [8] was 6.4 µM. The TGI [8] was 2.85 µM, the growth at 100 µM [9] was -78% and the TGI [10] was 5.56 µM. The CC50 [10, 37] was greater than 100 µM, the TGI [11] was greater than 100 µM and the CC50 [11, 37] was greater than 100 µM. It also gave a growth at 0.1 µM [12] of 98%, a growth at 0.1 µM [13] of 81% and a growth at 10 µM [14] of -98%. For the same molecule, the LC50 [15] was greater than 100 µM, the TGI [15] was 1.11 µM and the growth at 0.01 µM [16] was 103%. The growth at 1 µM [17] was 83%, the LC50 [18] was 6.79 µM and the TGI [18] was 3.68 µM. It also gave a growth at 1 µM [19] of 88%, a growth at 100 µM [20] of -13% and an LC50 [21] of 7.86 µM. For the same molecule, the TGI [21] was 3.33 µM, the growth at 100 µM [22] was -98% and the growth at 0.1 µM [23] was 94%. For the same molecule, the growth at 0.1 µM [24] was 92%, the LC50 [25] was 5.64 µM and the TGI [25] was 2.73 µM. The growth at 10 µM [26] was -100%, the growth at 0.01 µM [27] was 98% and the growth at 0.01 µM [28] was 85%. The growth at 100 µM [29] was -23%, the growth at 0.1 µM [30] was 105% and the growth at 10 µM [31] was -95%. It also gave a growth at 0.1 µM [32] of 90%, a growth at 100 µM [33] of -75% and a growth at 1 µM [34] of 65%. It also gave a growth at 1 µM [35] of 39% and a growth at 0.01 µM [36] of 86%.
